Reference: paper PMC11602988 (The Journal of Biological Chemistry, 2024)
Numbering of substitutions follows the chain as printed. Entries after “also recorded” stand apart in the source; their conditions may differ.

Experiments:
OCT1 WT [1] = biological target: T1, OCT1 WT (Homo sapiens, UniProt O15245); assay: cell-based
T1 sequence (O15245 1-554): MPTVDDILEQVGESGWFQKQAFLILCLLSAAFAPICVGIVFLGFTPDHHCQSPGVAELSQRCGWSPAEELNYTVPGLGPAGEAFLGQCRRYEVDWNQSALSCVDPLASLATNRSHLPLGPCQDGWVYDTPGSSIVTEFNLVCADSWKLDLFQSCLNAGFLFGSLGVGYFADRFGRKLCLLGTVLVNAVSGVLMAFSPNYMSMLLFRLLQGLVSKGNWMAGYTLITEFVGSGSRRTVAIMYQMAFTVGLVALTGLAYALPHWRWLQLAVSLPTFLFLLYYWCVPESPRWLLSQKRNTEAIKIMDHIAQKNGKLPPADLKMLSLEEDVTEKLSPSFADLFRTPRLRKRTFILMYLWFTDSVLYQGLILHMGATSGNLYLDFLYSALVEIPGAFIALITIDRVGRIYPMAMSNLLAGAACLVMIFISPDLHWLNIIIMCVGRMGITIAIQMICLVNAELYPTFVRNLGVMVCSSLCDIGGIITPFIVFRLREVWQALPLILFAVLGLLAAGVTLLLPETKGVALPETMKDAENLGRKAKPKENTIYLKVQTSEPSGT

OCT1 Phe244Ala variant [2] = biological target: T2, OCT1 Phe244Ala variant (Homo sapiens, UniProt O15245, F244A); assay: cell-based
T2 sequence (O15245 1-554 F244A): T1 sequence (O15245 1-554) with F244A

OCT1 Phe244Ala variant [3] = biological target: T2, OCT1 Phe244Ala variant; assay: Stereoselective cell uptake of racemic substrates (chiral LC-MS/MS), OCT1 Phe244Ala variant; conditions: 2.5 μM racemic substance, 2 min
OCT1 WT [4] = biological target: T1, OCT1 WT; assay: Uptake screening (transport ratio over empty vector), HEK293 cells overexpressing OCT1 WT; assay type: cell-based; set-up: expressed in transfected cells;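 also: intracellular substrate levels quantified by HPLC–tandem mass spectrometry after uptake in HBSS+ buffer at 37 °C, stable Flp-In HEK293 lines, fold change versus empty vector–transfected cells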
OCT1 Phe244Ala variant [5] = biological target: T2, OCT1 Phe244Ala variant; assay: Uptake screening (transport ratio over empty vector), HEK293 cells overexpressing OCT1 Phe244Ala variant; assay type: cell-based; set-up: expressed in transfected cells; conditions: for Transport activity of Phe244Ala in % of WT activity / Fold increased uptake rate by Phe244Ala compared to WT: 2.5 μM substrate, 2 min;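 as to all read-outs here: stably transfected HEK293 cells, intracellular substrate quantified by HPLC-tandem mass spectrometry in cell lysates, uptake in HBSS+ buffer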
OCT1 Phe244Ala variant [6] = biological target: T2, OCT1 Phe244Ala variant; assay: Inhibition of (R,S)-ethambutol uptake, HEK293 cells overexpressing OCT1 Phe244Ala; conditions: for Inhibition of the Phe244Ala mutant compared to the WT transporter (screening): 20 μM inhibitor, 2 μM (R,S)-ethambutol, 5 min
OCT1 WT [7] = biological target: T1, OCT1 WT; assay: Concentration-dependent uptake kinetics, HEK293 cells overexpressing OCT1 WT; conditions: for Clint: OCT1 WT, ratio of vmax over Km
OCT1 Phe244Ala variant [8] = biological target: T2, OCT1 Phe244Ala variant; assay: Concentration-dependent uptake kinetics, HEK293 cells overexpressing OCT1 Phe244Ala; conditions: for Clint: OCT1 Phe244Ala, ratio of vmax over Km; for Km, Phe244Ala compared to WT / Maximum transport capacity (vmax), Phe244Ala compared to WT: uptake kinetics, in words;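 as to all read-outs here: cells exposed to rising substrate concentrations in buffer, intracellular drug measured by HPLC-tandem mass spectrometry, quantified against a standard curve, uptake referenced to empty vector-transfected HEK293 controls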
OCT1 WT [9] = biological target: T1, OCT1 WT; assay: Stereoselective cell uptake of racemic substrates (chiral LC-MS/MS), OCT1 WT; conditions: 2.5 μM racemic substance, 2 min
[10] = uptake ratio over empty vector, HEK293 cells overexpressing OCT1 WT
[11] = Phe244Ala uptake relative to OCT1 WT
[12] = uptake ratio over empty vector, HEK293 cells overexpressing OCT1 Phe244Ala
[13] = uptake ratio of OCT1 WT-overexpressing HEK293 cells over empty vector
[14] = Phe244Ala uptake relative to WT
[15] = uptake ratio of OCT1 Phe244Ala-overexpressing HEK293 cells over empty vector

SMILES	Mean_transport_ratio_WT (OCT1 WT [4]; [10])	relative_Phe244Ala_uptake_in% (OCT1 Phe244Ala variant [5]; [11]) [%]	Mean_transport_ratio_Phe244Ala (OCT1 Phe244Ala variant [5]; [12])	Clint (OCT1 WT [7])	Clint (OCT1 Phe244Ala variant [8])	other results
CC(Cc1ccc(O)cc1)NCC(O)c1cc(O)cc(O)c1 (stereo not drawn) [Fenoterol]						IC50 (OCT1 WT [1]): 0.541 µM; IC50 (OCT1 Phe244Ala variant [2]): 5.53 µM; Stereoselectivity of Phe244Ala variant compared to WT (OCT1 Phe244Ala variant [3]): opposite stereoselectivities; also recorded: only one enantiomer of the racemic mixtures showed altered transport
COc1cc(Cc2cnc(N)nc2N)cc(OC)c1OC [Trimethoprim]	3.204	23.542	1.519			Inhibition of the Phe244Ala mutant compared to the WT transporter (screening) (OCT1 Phe244Ala variant [6]): strongly reduced inhibition
COc1cc(CCN)cc(OC)c1OC [Mescaline]		16.381		4.84 ± 2.55 ml × g Protein^−1 × min^−1	0.91 ± 2.50 ml × g Protein^−1 × min^−1	Mean_transport_ratio_WT (OCT1 WT [4]; [13]): 5.297; Transport activity of Phe244Ala in % of WT activity (OCT1 Phe244Ala variant [5]; [14]): ~10%; Mean_transport_ratio_Phe244Ala (OCT1 Phe244Ala variant [5]; [15]): 1.704; Inhibition of the Phe244Ala mutant compared to the WT transporter (screening) (OCT1 Phe244Ala variant [6]): strongly reduced inhibition; Km, Phe244Ala compared to WT (OCT1 Phe244Ala variant [8]): higher apparent affinity Km and transport capacity vmax for the WT transporter than the Phe244Ala variant; Maximum transport capacity (vmax), Phe244Ala compared to WT (OCT1 Phe244Ala variant [8]): higher apparent affinity Km and transport capacity vmax for the WT transporter than the Phe244Ala variant
CN1CCN(CC(=O)N2c3ccccc3C(=O)Nc3cccnc32)CC1 [Pirenzepine]				0.43 ± 0.85 ml × g Protein^−1 × min^−1	2.74 ± 2.15 ml × g Protein^−1 × min^−1	IC50 (OCT1 WT [1]): 104 µM; IC50 (OCT1 Phe244Ala variant [2]): 23.3 µM; Fold increased uptake rate by Phe244Ala compared to WT (OCT1 Phe244Ala variant [5]): 8.0 fold; Inhibition of the Phe244Ala mutant compared to the WT transporter (screening) (OCT1 Phe244Ala variant [6]): more potent inhibition; Km, Phe244Ala compared to WT (OCT1 Phe244Ala variant [8]): lower Km values
CC(C)[N+](C)(CCOC(=O)C1c2ccccc2Oc2ccccc21)C(C)C [Propanthelin, Propantheline]				224 ± 251 ml × g Protein^−1 × min^−1	205 ± 124 ml × g Protein^−1 × min^−1	
CCN1CCCC1CNC(=O)c1cc(S(N)(=O)=O)ccc1OC (stereo not drawn) [Sulpiride]				2.65 ± 3.09 ml × g Protein^−1 × min^−1	4.01 ± 3.27 ml × g Protein^−1 × min^−1	vmax (OCT1 WT [7]): 237 ± 49.7 pmol × mg protein^−1 × min^−1; vmax (OCT1 Phe244Ala variant [8]): 418 ± 65 pmol × mg protein^−1 × min^−1
CC(C)(C)NCC(O)COc1cccc2c1CCC(=O)N2 (stereo not drawn) [Carteolol]	3.378		8.502	1.01 ± 1.41 ml × g Protein^−1 × min^−1	7.82 ± 8.13 ml × g Protein^−1 × min^−1	Fold increased uptake rate by Phe244Ala compared to WT (OCT1 Phe244Ala variant [5]): 3.2 fold; relative_Phe244Ala_uptake_in% (OCT1 Phe244Ala variant [5]; [14]): 315.540%
Cc1ncc(C[n+]2csc(CCO)c2C)c(N)n1 [Thiamine]	42.169	21.749	9.954	7.51 ± 8.28 ml × g Protein^−1 × min^−1	2.70 ± 5.44 ml × g Protein^−1 × min^−1	Maximum transport capacity (vmax), Phe244Ala compared to WT (OCT1 Phe244Ala variant [8]): reduced transport capacity
CC(=O)OC(C)C[N+](C)(C)C (stereo not drawn) [Methacholine, Acetyl-beta-methylcholine]				14.1 ± 15.2 ml × g Protein^−1 × min^−1	3.03 ± 8.29 ml × g Protein^−1 × min^−1	Transport activity of Phe244Ala in % of WT activity (OCT1 Phe244Ala variant [5]; [14]): ~10%; Km, Phe244Ala compared to WT (OCT1 Phe244Ala variant [8]): higher Km values; Maximum transport capacity (vmax), Phe244Ala compared to WT (OCT1 Phe244Ala variant [8]): more similar maximum transport capacities
CN[C@@H]1CCc2[nH]c3ccc(C(N)=O)cc3c2C1 [Frovatriptan]		43.181				Mean_transport_ratio_WT (OCT1 WT [4]; [13]): 22.068; Mean_transport_ratio_Phe244Ala (OCT1 Phe244Ala variant [5]; [15]): 10.097; Stereoselectivity of Phe244Ala variant compared to WT (OCT1 Phe244Ala variant [3]): opposite stereoselectivities; also recorded: only one enantiomer of the racemic mixtures showed altered transport
CN(C)CCc1ccc(O)cc1 [Hordenine]		11.246				IC50 (OCT1 WT [1]): 3 µM; IC50 (OCT1 Phe244Ala variant [2]): 53.2 µM; Mean_transport_ratio_WT (OCT1 WT [4]; [13]): 2.424; Mean_transport_ratio_Phe244Ala (OCT1 Phe244Ala variant [5]; [15]): 1.16; Inhibition of the Phe244Ala mutant compared to the WT transporter (screening) (OCT1 Phe244Ala variant [6]): strongly reduced inhibition
O=C(NCCNCC(O)COc1ccc(O)cc1)N1CCOCC1 (stereo not drawn) [Xamoterol]	34.864	54.211	19.358			Stereoselectivity of uptake via WT OCT1 (OCT1 WT [9]): stereoselective uptake; Stereoselectivity of Phe244Ala variant compared to WT (OCT1 Phe244Ala variant [3]): only one enantiomer of the racemic mixtures showed altered transport; Stereoselectivity of transport by the Phe244Ala variant (OCT1 Phe244Ala variant [3]): lacked any stereoselective transport
Clc1cccc(Cl)c1N=C1NCCN1 [Clonidine]						IC50 (OCT1 WT [1]): 1.62 µM; IC50 (OCT1 Phe244Ala variant [2]): 34.3 µM; Inhibition of the Phe244Ala mutant compared to the WT transporter (screening) (OCT1 Phe244Ala variant [6]): strongly reduced inhibition; Fold difference of inhibitory potency between WT and Phe244Ala (OCT1 Phe244Ala variant [6]; IC50 comparison, (R,S)-ethambutol uptake): 21 fold
CC(CCc1ccc(O)cc1)NCCc1ccc(O)c(O)c1 (stereo not drawn) [Dobutamine]	6.852		15.606	3.03 ± 6.16 ml × g Protein^−1 × min^−1	7.88 ± 6.38 ml × g Protein^−1 × min^−1	relative_Phe244Ala_uptake_in% (OCT1 Phe244Ala variant [5]; [14]): 249.567%; Km, Phe244Ala compared to WT (OCT1 Phe244Ala variant [8]): lower Km values
C[N+]1(C)CCN(c2ccccc2)CC1 [Dimethylphenylpiperazinium]	34.77		24.939			relative_Phe244Ala_uptake_in% (OCT1 Phe244Ala variant [5]; [14]): 70.889%
N=C(N)N1CCc2ccccc2C1 [Debrisoquin]	19.246		20.768			relative_Phe244Ala_uptake_in% (OCT1 Phe244Ala variant [5]; [14]): 108.342%
CCOc1ccccc1OCCN[C@H](C)Cc1ccc(OC)c(S(N)(=O)=O)c1 [Tamsulosin]	3.001	40.118	1.803			Stereoselectivity of uptake via WT OCT1 (OCT1 WT [9]): stereoselective uptake; Stereoselectivity of transport by the Phe244Ala variant (OCT1 Phe244Ala variant [3]): lacked any stereoselective transport
NC(N)=Nc1nc(CSCCC(N)=NS(N)(=O)=O)cs1 [Famotidine]				45.8 ± 45.7 ml × g Protein^−1 × min^−1	12.1 ± 19.8 ml × g Protein^−1 × min^−1	Km, Phe244Ala compared to WT (OCT1 Phe244Ala variant [8]): higher Km values; Maximum transport capacity (vmax), Phe244Ala compared to WT (OCT1 Phe244Ala variant [8]): more similar maximum transport capacities
CN(C)CCc1c[nH]c2ccc(C[C@H]3COC(=O)N3)cc12 [Zolmitriptan]				21.6 ± 26.4 ml × g Protein^−1 × min^−1	13.3 ± 17.5 ml × g Protein^−1 × min^−1	Maximum transport capacity (vmax), Phe244Ala compared to WT (OCT1 Phe244Ala variant [8]): reduced transport capacity
CN(C)C(=O)Oc1cccc([N+](C)(C)C)c1 [Neostigmine]		23.835				Mean_transport_ratio_WT (OCT1 WT [4]; [13]): 51.144; Mean_transport_ratio_Phe244Ala (OCT1 Phe244Ala variant [5]; [15]): 12.952
COc1cc2c(cc1OC)-c1cc3ccc(OC)c(OC)c3c[n+]1CC2 [Palmatin]	7.047	65.326	4.951			
CN(C)CC(c1ccc(O)cc1)C1(O)CCCCC1 (stereo not drawn) [O-Desmethylvenlafaxine]	2.309		3.092			relative_Phe244Ala_uptake_in% (OCT1 Phe244Ala variant [5]; [14]): 159.771%
Nc1ccncc1N [Amifampridine]	4.689		1.269			relative_Phe244Ala_uptake_in% (OCT1 Phe244Ala variant [5]; [14]): 7.302%
